In brackets after ≈: the same amount, converted by molar mass.
Assays:
[1] = tested on: Staphylococcus aureus (S. aureus) 29213; experiment: Antibacterial activity, microbroth dilution MIC (Table 1); type: cell-based; conditions: microbroth dilution, Gram-positive S. aureus 29213, read-out: MIC, 29213
How it was run: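 Broth microdilution; endpoint = no macroscopic growth; value = lowest inhibiting concn, μg/mL.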

[2] = tested on: Escherichia coli (E. coli) BAS849; experiment: as above; type: cell-based; conditions: microbroth dilution, super sensitive Gram-negative E. coli BAS849, read-out: MIC, BAS849
How it was run: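 Potency is reported as minimum inhibitory concentration in μg/mL, determined by broth microdilution as the lowest level of compound that stops growth visible to the eye.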

[3] = tested on: Acinetobacter baumannii (A. baumannii) BAA747; experiment: Antibacterial activity, MIC (Table 4); type: cell-based; conditions: A. baumannii BAA747, read-out: MIC, BAA747
How it was run: (§1)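 MIC in μg/mL by microbroth dilution, scored as the lowest level that suppresses visible growth.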

[4] = tested on: Klebsiella pneumoniae (K. pneumoniae) 35657; experiment: Antibacterial activity, MIC (Table 4); type: cell-based; conditions: K. pneumoniae 35657, read-out: MIC, 35657
How it was run: as §1

E. coli ELZ4000 = experiment: Antibacterial activity, MIC, multi-drug resistant clinical isolate (Table 3); type: cell-based; conditions: Escherichia coli, ELZ4000, read-out: MIC ELZ4000
How it was run: (§2)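 Microbroth dilution. Endpoint: absence of macroscopically visible growth. Value = MIC, μg/mL.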

E. coli ELZ4251 = experiment: as above; type: cell-based; conditions: Escherichia coli
How it was run: as §2

A. baumannii MXX2240 = experiment: Antibacterial activity, MIC, resistant strain (Table 4); type: cell-based; conditions: Acinetobacter baumannii, MXX2240; resistant A. baumannii MMX2240, multi-drug resistant clinical isolate; read-out: MIC, MMX2240
How it was run: as §1

K. pneumoniae MXX1232 = experiment: as above; type: cell-based; conditions: Klebsiella pneumoniae, MXX1232; resistant K. pneumoniae MMX1232, multi-drug resistant clinical isolate; read-out: MIC, MMX1232
How it was run: as §1

E. coli 25922 = experiment: Antibacterial activity, microbroth dilution MIC (Table 1); type: cell-based, Escherichia coli; conditions: Escherichia coli; microbroth dilution; control Gram-negative E. coli 25922 strain; read-out: MIC, 25922
How it was run: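 MIC (μg/mL) read as lowest concentration with no macroscopically visible growth; microbroth dilution format. E. coli 25922 served as control Gram-negative strain.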

[5] = tested on: Pseudomonas aeruginosa (P. aeruginosa) 27853; experiment: Antibacterial activity, MIC (Table 5); type: cell-based; conditions: P. aeruginosa 27853, read-out: MIC, 27853
How it was run: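 Compounds are serially diluted in broth and inoculated with the organism. Growth is then inspected macroscopically, and the lowest concentration showing none is taken as the MIC (μg/mL).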

E. coli LZ3111 = experiment: Antibacterial activity, MIC, quinolone resistant strain (Table 2); type: cell-based; conditions: Escherichia coli, LZ3111, read-out: MIC LZ3111
How it was run: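 Strain carries mutations conferring high-level quinolone resistance; tested by microbroth dilution, MIC recorded in μg/mL as lowest concentration preventing visible growth.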

## CCc1cc(C(=O)O)c(=O)[nH]c1-c1ccc2c(c1)cc1n2CCC1N(C)C (stereo not drawn) [Cpd 152, 6-(1-(dimethylamino)-2,3-dihydro-1H-pyrrolo[1,2-a]indol-7-yl)-5-ethyl-2-oxo-1,2-dihydropyridine-3-carboxylic acid]
[1]
  MIC: 12.5 to 150 µg/mL (≈ 34.2 to 410 µM)
[2]
  MIC: < 1 µg/mL
[3]
  MIC: 3.5 to 12.5 µg/mL (≈ 9.58 to 34.2 µM)
[4]
  MIC: < 1 µg/mL
E. coli ELZ4000
  MIC: 12.5 to 150 µg/mL (≈ 34.2 to 410 µM)
E. coli ELZ4251
  MIC: 12.5 to 150 µg/mL (≈ 34.2 to 410 µM)
A. baumannii MXX2240
  MIC: 12.5 to 150 µg/mL (≈ 34.2 to 410 µM)
K. pneumoniae MXX1232
  MIC: 12.5 to 150 µg/mL (≈ 34.2 to 410 µM)
E. coli 25922
  MIC: < 1 µg/mL
[5]
  MIC: 12.5 to 150 µg/mL (≈ 34.2 to 410 µM)
E. coli LZ3111
  MIC: 12.5 to 150 µg/mL (≈ 34.2 to 410 µM)

## CCc1cc(C(=O)O)c(=O)[nH]c1-c1ccc2c(c1)cc(CN1CC[C@@H](F)C1)n2C [Cpd 129, (R)-5-ethyl-6-(2-((3-fluoropyrrolidin-1-yl)methyl)-1-methyl-1H-indol-5-yl)-2-oxo-1,2-dihydropyridine-3-carboxylic acid]
[1]
  MIC: 3.5 to 12.5 µg/mL (≈ 8.81 to 31.5 µM)
[2]
  MIC: < 1 µg/mL
[3]
  MIC: 3.5 to 12.5 µg/mL (≈ 8.81 to 31.5 µM)
[4]
  MIC: 1 to 3.5 µg/mL (≈ 2.52 to 8.81 µM)
E. coli ELZ4000
  MIC: 12.5 to 150 µg/mL (≈ 31.5 to 377 µM)
E. coli ELZ4251
  MIC: 12.5 to 150 µg/mL (≈ 31.5 to 377 µM)
A. baumannii MXX2240
  MIC: 12.5 to 150 µg/mL (≈ 31.5 to 377 µM)
K. pneumoniae MXX1232
  MIC: 12.5 to 150 µg/mL (≈ 31.5 to 377 µM)
E. coli 25922
  MIC: < 1 µg/mL
[5]
  MIC: 12.5 to 150 µg/mL (≈ 31.5 to 377 µM)
E. coli LZ3111
  MIC: 12.5 to 150 µg/mL (≈ 31.5 to 377 µM)

## CCc1c(-c2ccc3c(c2)cc(CN2CCCC2)n3C)[nH]c(=O)c(C(=O)O)c1O [Cpd 164, 5-ethyl-4-hydroxy-6-(1-methyl-2-(pyrrolidin-1-ylmethyl)-1H-indol-5-yl)-2-oxo-1,2-dihydropyridine-3-carboxylic acid]
[1]
  MIC: 3.5 to 12.5 µg/mL (≈ 8.85 to 31.6 µM)
[2]
  MIC: < 1 µg/mL
[3]
  MIC: < 1 µg/mL
[4]
  MIC: 3.5 to 12.5 µg/mL (≈ 8.85 to 31.6 µM)
E. coli ELZ4000
  MIC: 12.5 to 150 µg/mL (≈ 31.6 to 379 µM)
E. coli ELZ4251
  MIC: 12.5 to 150 µg/mL (≈ 31.6 to 379 µM)
A. baumannii MXX2240
  MIC: 3.5 to 12.5 µg/mL (≈ 8.85 to 31.6 µM)
K. pneumoniae MXX1232
  MIC: 12.5 to 150 µg/mL (≈ 31.6 to 379 µM)
E. coli 25922
  MIC: < 1 µg/mL
[5]
  MIC: 3.5 to 12.5 µg/mL (≈ 8.85 to 31.6 µM)
E. coli LZ3111
  MIC: 3.5 to 12.5 µg/mL (≈ 8.85 to 31.6 µM)

## CCc1cc(C(=O)O)c(=O)[nH]c1-c1ccc2c(c1)cc(CCN1CCCCC1)n2C [Cpd 160, 5-ethyl-6-(1-methyl-2-(2-(piperidin-1-yl)ethyl)-1H-indol-5-yl)-2-oxo-1,2-dihydropyridine-3-carboxylic acid]
[1]
  MIC: 12.5 to 150 µg/mL (≈ 30.7 to 368 µM)
[2]
  MIC: < 1 µg/mL
[3]
  MIC: 1 to 3.5 µg/mL (≈ 2.45 to 8.59 µM)
[4]
  MIC: < 1 µg/mL
E. coli ELZ4000
  MIC: 12.5 to 150 µg/mL (≈ 30.7 to 368 µM)
E. coli ELZ4251
  MIC: 12.5 to 150 µg/mL (≈ 30.7 to 368 µM)
A. baumannii MXX2240
  MIC: 12.5 to 150 µg/mL (≈ 30.7 to 368 µM)
K. pneumoniae MXX1232
  MIC: 12.5 to 150 µg/mL (≈ 30.7 to 368 µM)
E. coli 25922
  MIC: < 1 µg/mL
[5]
  MIC: 12.5 to 150 µg/mL (≈ 30.7 to 368 µM)
E. coli LZ3111
  MIC: 12.5 to 150 µg/mL (≈ 30.7 to 368 µM)

## CCc1c(-c2ccc3c(c2)cc(CN2CCC(O)C2)n3C)[nH]c(=O)c(C(=O)O)c1O (stereo not drawn) [Cpd 178, 5-ethyl-4-hydroxy-6-(2-((3-hydroxypyrrolidin-1-yl)methyl)-1-methyl-1H-indol-5-yl)-2-oxo-1,2-dihydropyridine-3-carboxylic acid]
[1]
  MIC: 3.5 to 12.5 µg/mL (≈ 8.51 to 30.4 µM)
[2]
  MIC: < 1 µg/mL
[3]
  MIC: 1 to 3.5 µg/mL (≈ 2.43 to 8.51 µM)
[4]
  MIC: 3.5 to 12.5 µg/mL (≈ 8.51 to 30.4 µM)
E. coli ELZ4000
  MIC: 12.5 to 150 µg/mL (≈ 30.4 to 365 µM)
E. coli ELZ4251
  MIC: 12.5 to 150 µg/mL (≈ 30.4 to 365 µM)
A. baumannii MXX2240
  MIC: 12.5 to 150 µg/mL (≈ 30.4 to 365 µM)
K. pneumoniae MXX1232
  MIC: 12.5 to 150 µg/mL (≈ 30.4 to 365 µM)
E. coli 25922
  MIC: < 1 µg/mL
[5]
  MIC: 3.5 to 12.5 µg/mL (≈ 8.51 to 30.4 µM)
E. coli LZ3111
  MIC: 3.5 to 12.5 µg/mL (≈ 8.51 to 30.4 µM)

## CCc1cc(C(=O)O)c(=O)[nH]c1-c1ccc2c(c1)cc(CCN(C)C)n2C [Cpd 161, 6-(2-(2-(dimethylamino)ethyl)-1-methyl-1H-indol-5-yl)-5-ethyl-2-oxo-1,2-dihydropyridine-3-carboxylic acid]
[1]
  MIC: 12.5 to 150 µg/mL (≈ 34 to 408 µM)
[2]
  MIC: < 1 µg/mL
[3]
  MIC: 3.5 to 12.5 µg/mL (≈ 9.53 to 34 µM)
[4]
  MIC: < 1 µg/mL
E. coli ELZ4000
  MIC: 12.5 to 150 µg/mL (≈ 34 to 408 µM)
E. coli ELZ4251
  MIC: 12.5 to 150 µg/mL (≈ 34 to 408 µM)
A. baumannii MXX2240
  MIC: 12.5 to 150 µg/mL (≈ 34 to 408 µM)
K. pneumoniae MXX1232
  MIC: 12.5 to 150 µg/mL (≈ 34 to 408 µM)
E. coli 25922
  MIC: < 1 µg/mL
[5]
  MIC: 3.5 to 12.5 µg/mL (≈ 9.53 to 34 µM)
E. coli LZ3111
  MIC: 12.5 to 150 µg/mL (≈ 34 to 408 µM)
